Reference: ChEMBL document CHEMBL2029230, “Identification, design and biological evaluation of heterocyclic quinolones targeting Plasmodium falciparum type II NADH:quinone oxidoreductase (PfNDH2)” (J Med Chem, 2012)

How the values were obtained:
[1] = test system: Plasmodium falciparum; test: Antimalarial activity against blood stage forms of Plasmodium falciparum 3D7 infected in human erythrocytes; assay type: functional, organism-based
[2] = Inhibition of Plasmodium falciparum recombinant NDH2 expressed in Escherichia coli F571 using decyclubiquinone as substrate at 1 min by spectrophotometry
[3] = test system: Plasmodium falciparum; test: Antimalarial activity against […]-resistant Plasmodium falciparum TM90C2B containing cytochrome-b Y268S mutant; assay type: functional, organism-based
[4] = test system: Plasmodium falciparum; test: Antimalarial activity against chloroquine-resistant Plasmodium falciparum W2; assay type: functional, organism-based
[5] = test system: Plasmodium berghei; test: Antimalarial activity against Plasmodium berghei NS infected in po dosed CD1 mouse assessed as decrease in parasitemia measured on day 4; assay type: functional; details: 96 h
[6] = test system: Plasmodium berghei; test: Antimalarial activity against Plasmodium berghei NS infected in CD1 mouse assessed as decrease in parasitemia at 20 mg/kg, po administered using Na2CO3 as vehicle measured on day 4; assay type: functional; parameters: scale not given: the % may be the effect or the level left

SMILES | IC50 [1] [nM] | further results
Cc1c(-c2ccc(-c3ccc(OC(F)(F)F)cc3)nc2)[nH]c2cc(C(F)(F)F)ccc2c1=O | > 1000 | 
CCOC(=O)c1c(-c2ccc(-c3ccc(OC(F)(F)F)cc3)nc2)[nH]c2ccccc2c1=O | 987 | 
O=c1c(CO)c(-c2ccc(-c3ccc(OC(F)(F)F)cc3)cc2)[nH]c2ccccc12 | 162 | IC50 [2]: 69 nM; IC50 [3]: 361 nM
Cc1c(-c2ccc(-c3ccc(OC(F)(F)F)cc3)nc2)[nH]c2cc(S(C)(=O)=O)ccc2c1=O | > 1000 | 
Cc1c(-c2ccc(Oc3ccc(F)cc3)nc2)[nH]c2ccccc2c1=O | 279 | IC50 [2]: 588 nM
Cc1c(-c2ccc(-c3ccc(OC(F)(F)F)cc3)nc2)[nH]c2c(O)cccc2c1=O | > 1000 | 
COc1ccc2[nH]c(-c3ccc(-c4ccc(OC(F)(F)F)cc4)nc3)c(C)c(=O)c2c1 | > 1000 | 
Cc1c(-c2ccc(OC3CCOCC3)cc2)[nH]c2ncccc2c1=O | > 1000 | 
Cc1c(-c2ccc(-c3ccc(C(F)(F)F)cc3)nc2)[nH]c2ccccc2c1=O | 102 | IC50 [2]: 13.9 nM; IC50 [3]: 314 nM
Cc1c(-c2ccc(-c3ccc(OC(F)(F)F)cc3)nc2)[nH]c2cc(F)c(F)cc2c1=O | 344 | 
Cc1c(-c2c(F)cc(-c3ccc(OC(F)(F)F)cc3)cc2F)[nH]c2ccccc2c1=O | 940 | 
Cc1c(-c2ccc(-c3ccc(F)cc3F)nc2)[nH]c2ccccc2c1=O | 219 | IC50 [2]: 88.6 nM
Cc1c(-c2ccc(CN3CCOCC3)cc2)[nH]c2ccccc2c1=O | 32 | IC50 [4]: 3070 nM
Cc1c(-c2ccc(-c3ccc(OC(F)(F)F)cc3)nc2)[nH]c2ccc(O)cc2c1=O | 280 | 
CO[C@H]1O[C@@H]2O[C@@]3(C)CC[C@H]4[C@H](C)CC[C@@H]([C@H]1C)[C@@]24OO3 |  | ED50 [5]: 3.1 mg/kg; ED90 [5]: 5.8 mg/kg
Cc1c(-c2ccc(-c3ccc(OC(F)(F)F)cc3)nc2)[nH]c2cc(Cl)ccc2c1=O | 373 | 
COc1cccc2[nH]c(-c3ccc(-c4ccc(OC(F)(F)F)cc4)nc3)c(C)c(=O)c12 | > 1000 | 
Cc1c(-c2ccc(-c3ccc(OC(F)(F)F)cc3)nc2)[nH]c2cc(F)c(Cl)cc2c1=O | 390 | 
Cc1c(-c2ccc(-c3ccc(OC(F)(F)F)cc3)nc2)[nH]c2cc(F)cc(F)c2c1=O | 286 | IC50 [2]: 2.6 nM
Cc1c(-c2ccc(-c3ccc(OC(F)(F)F)cc3)nc2)[nH]c2cc(Cl)c(F)cc2c1=O | 390 | 
Cc1c(-c2ccc(-c3ccc(OC(F)(F)F)cc3)nc2)nc2ccccc2c1OP(=O)(O)O |  | Activity [6]: 100%
COc1c(-c2ccc(-c3ccc(OC(F)(F)F)cc3)nc2)[nH]c2ccccc2c1=O | 93 | 

Continued, in another order:

IC50 [1] [nM] | SMILES | further results
496 | Cc1c(-c2ccc(-c3ccc(CN4CCOCC4)cc3)cc2)[nH]c2ccccc2c1=O | 
> 1000 | Cc1c(-c2ccc(CN3CCOCC3)cc2)[nH]c2cc(Cl)ccc2c1=O | 
> 1000 | Cc1c(-c2ccc(-c3cccc(OCCN4CCCCC4)c3)nc2)[nH]c2ccccc2c1=O | 
> 1000 | Cc1c(-c2ccc(-c3ccc(CN4CCOCC4)cc3)nc2)[nH]c2ccccc2c1=O | 
319 | Cc1c(-c2ccc(OC3CCC(F)(F)CC3)cc2)[nH]c2ccccc2c1=O | 
> 1000 | Cc1c(-c2ccc(-c3ccc(OCCN4CCOCC4)cc3)nc2)[nH]c2ccccc2c1=O | 
> 1000 | Cc1c(-c2ccc(OC3CCOCC3)cc2)[nH]c2ccccc2c1=O | 
> 1000 | Cc1c(-c2ccc(-c3cccc(O)c3)nc2)[nH]c2ccccc2c1=O | 
> 1000 | Cc1c(-c2ccc(-c3cccc(OCCN4CCOCC4)c3)nc2)[nH]c2ccccc2c1=O | 
> 1000 | Cc1c(-c2ccc(-c3cnn(CCN4CCCCC4)c3)cc2)[nH]c2ccccc2c1=O | 
> 1000 | Cc1c(-c2ccc(OCCN3CCN(C)CC3)cc2)[nH]c2ccccc2c1=O | 
